In PMC11325555, “Interaction of Bisphenol A and Its Analogs with Estrogen and Androgen Receptor from Atlantic Cod (Gadus morhua)” (Environmental Science & Technology, 2024):

How the values were obtained:
[1] = molecular target: T1, Atlantic cod androgen receptor alpha (gmAra) LBD (Gadus morhua, UniProt D5FIC7); assay: Luciferase reporter gene assay, gmAra agonism (androgenic activity) in transfected COS-7 cells; conditions: COS-7, monkey, 24 h, read-out: gmAra Emax
T1 sequence (D5FIC7 409-718): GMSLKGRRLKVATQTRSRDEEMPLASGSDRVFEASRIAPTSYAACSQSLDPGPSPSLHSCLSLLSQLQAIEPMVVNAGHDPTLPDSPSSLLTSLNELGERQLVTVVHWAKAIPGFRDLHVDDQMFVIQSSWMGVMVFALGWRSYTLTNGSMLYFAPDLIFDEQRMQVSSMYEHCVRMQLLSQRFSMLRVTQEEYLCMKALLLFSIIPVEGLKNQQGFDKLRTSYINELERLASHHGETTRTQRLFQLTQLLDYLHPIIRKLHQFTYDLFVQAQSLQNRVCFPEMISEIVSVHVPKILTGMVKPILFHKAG
Method: Ligand activation of gmEra and gmAra was studied with a luciferase reporter gene assay in COS-7 cells transiently transfected with the pCMX-GAL4(DBD)-gmEra(LBD) or pCMX-GAL4(DBD)-gmAra(LBD) plasmid by using the TransIT-LT1 reagent (TransIT-LT1 Transfection Reagent, Mirus). Cells were seeded into 96-well plates (5000 cells/well) and incubated for 24 h before cotransfection with the plasmid mixture (100 ng/well). The plasmid mixture contained GAL4-UAS luciferase reporter plasmid (tk-(MH100)x4 luc), the pCMX-GAL4(DBD)-gmEra(LBD) or pCMX-GAL4(DBD)-gmAra(LBD) receptor plasmids (2:1 reporter:receptor plasmid mass ratio), and a plasmid constitutively producing the β-galactosidase enzyme used for normalization of transfection efficiency (pCMV- β-Gal). […] The maximum DMSO/methanol concentrations in the exposure wells were 0.5% (v/v) in DMEM medium without phenol red (Sigma-Aldrich). After exposure, cells were lysed, and luciferase and beta-galactosidase activities were measured as luminescence and absorbance (420 nm) after the addition of luciferin and ONPG substrates, respectively, using an Enspire Multimode plate reader (PerkinElmer, Waltham, Massachusetts, USA).
Figure 3 Androgenic activity of bisphenols. COS-7 cells were transiently transfected with gmAra LBD and exposed individually to 12 bisphenol analogs at increasing concentrations. […] The dose–response curves were created using nonlinear regression and the four-parameter logistic fit in Graphpad Prism v.9. For comparison, the dose–response curve of BPA (black line) is indicated together with each individual BP tested (red line). *p < 0.05 versus solvent control by one-way ANOVA and Dunnett’s multiple comparison post hoc test.

[2] = tested on: Er-mediated synthesis of Vtg in Atlantic cod PCLS; assay: Vitellogenin ELISA in media of exposed precision-cut liver slices (PCLS); format: cell-based, Atlantic cod (Gadus morhua); conditions: 96 h; for Vtg synthesis in PCLS, result in words: 1, 10, 100 μM bisphenols or 0.1, 1, 10 nM EE2, Vtg in media by ELISA
Method: PCLS culturing and exposure assays were performed essentially as described previously,[42],[56] with the modifications described below. Juvenile Atlantic cod were killed by a blow to the head, and the liver was dissected out and placed in a Petri dish containing ice-cold PCLS buffer (122 mM NaCl, 4.8 mM KCl, 1.2 mM MgSO4, 11 mM Na2HPO4, 3.7 mM NaHCO3, […]). The liver was then cut into small tissue blocks (approximately 3 cm long, 2 cm wide, and 1–3 cm high) and kept in ice-cold complete culture medium (L-15 medium supplemented with 10% FBS and 1× antibiotic-antimycotic solution). For slicing, the tissue block was fixed on the specimen plate of a Leica vibrating blade microtome VT1200 (Leica, Wetzlar, Germany) using Loctite Super Glue (Clas Ohlson, Bergen, Norway), and 250 μm thick tissue slices were cut (under ice-cold PCLS buffer) and kept in a Petri dish with ice-cold complete culture medium. Using a sterile razor blade, the tissue slices (2 × 3 cm) were then divided into smaller pieces (approximately 4 × 4 mm) and distributed into a 12-well cell culture plate (Sarstedt, Nümbrecht, Germany), each well containing 6 slices and 2 mL of complete culture medium. The PCLS were preincubated at 10 °C for 2 h before exposure. After preincubation, 1 mL of the medium was removed from each well and replaced by 1 mL of fresh complete culture medium containing 2x the final desired concentration and incubated at 10 °C for 96 h with shaking at 50 rpm. […] At the end of the exposure, slices were collected with tweezers and rinsed briefly in cold PBS. Excess PBS was removed by carefully touching a dry surface of the culture plate with the slice 4 times before measuring the weight in a preweighed cryotube. The slices were then snap-frozen in liquid N2 and stored at −80 °C. The media was also sampled and stored at −80 °C for viability (LDH) assay and vitellogenin ELISA.
Vitellogenin (Vtg) in media collected from exposed PCLS was quantified using the Atlantic Cod Vitellogenin ELISA kit (Biosense Laboratories AS, Bergen, Norway) according to manufacturer’s instructions. Vtg was quantified in 100 μL of undiluted media and normalized to the weight of the liver tissue. Statistical analysis of ELISA data was performed with GraphPad Prism Software version 9 (GraphPad Prism, La Jolla, CA, USA) by using one-way ANOVA followed by Dunnett’s test (for normally distributed data) or Friedman test followed by Dunn’s test (for non-normally distributed data), as described previously for PCLS experiments (Yadetie et al.[42]).
Figure 5 Relative vitellogenin production in Atlantic cod precision-cut liver slices (PCLS) exposed to bisphenols and EE2. PCLS were exposed to 1, 10, and 100 μM bisphenols or 0.1, 1, and 10 nM EE2, for 96 h. EE2 was included as positive control for activation of the gmEra signaling pathway. Levels of induced Vtg in the PCLS media were measured using ELISA (Cod Vitellogenin ELISA kit, Biosense Laboratories AS). The data represents mean ± SEM of fold change (compared to solvent control) of Vtg levels from 4 to 10 fish. n = 8–10 for all bisphenols except for BADGE (n = 4). Asterisks denote significant changes (p < 0.05) compared to solvent control.

| Compound | maximal fold induction [1] | Vtg synthesis in PCLS, result in words [2] | concentration at which maximum Vtg levels were observed ([2]; 1, 10, 100 μM tested) |
| --- | --- | --- | --- |
| CC(C)(c1ccc(OCC2CO2)cc1)c1ccc(OCC2CO2)cc1 (centres unmarked) [BADGE] | 1 | small, but significant, decrease in the Vtg synthesis |  |
| Oc1ccc(C2(c3ccc(O)cc3)c3ccccc3-c3ccccc32)cc1 [BPFL] | 1.3 | only moderate and not statistically significant | 10 µM |
